Test results taken from US7407670B2, “Solid dispersions comprising two different polymer matrixes” (Janssen Pharmaceutica, N.V., priority 2002, dated 2008).

Experiment: Solubility of itraconazole in polymer solutions at 298K
Assay type: physicochemical
Conditions: eudragit E100 solution versus PVPVA64 solution
From the text: FIG. 10: Solubility of itraconazole in different concentration of polymer solutions at 298K in eudragit E100 (open bars) and PVPVA64 (closed bars).

In the case of `CCC(C)n1ncn(-c2ccc(N3CCN(c4ccc(OCC5COC(Cn6cncn6)(c6ccc(Cl)cc6Cl)O5)cc4)CC3)cc2)c1=O` (stereo not shown) [itraconazole, Itraconazole], the “solubility in polymer solution (comparison in words)” value is reported as “much higher in eudragit E100 solution”.
